Measurements as given in ChEMBL document CHEMBL1158916, “2-O-alpha-D-galactopyranosyl glycerol hexaacetate from Ruellia brittoniana” (J Nat Prod, 1990).

Test system: Rattus norvegicus
Assay: Toxicity in anesthetized rat assessed as increase in mean arterial pressure at 100 ug/kg
Format: organism-based, Artery
Settings: in vivo, 0.1 mg/kg

## CC(=O)OCC(COC(C)=O)O[C@H]1O[C@H](COC(C)=O)[C@H](OC(C)=O)[C@H](OC(C)=O)[C@H]1OC(C)=O
  Activity: Toxic
